From ChEMBL document CHEMBL1157538, “Discovery of a potent, selective, and orally bioavailable c-Met inhibitor: 1-(2-hydroxy-2-methylpropyl)-N-(5-(7-methoxyquinolin-4-yloxy)pyridin-2-yl)-5-methyl-3-oxo-2-phenyl-2,3-dihydro-1H-pyrazole-4-carboxamide (AMG 458)” (J Med Chem, 2008) come the findings set out here.

What is called microsomal CLint is the rate of metabolic loss divided by the concentration. The term bioavailability denotes dose-corrected exposure relative to a reference, in per cent. What is called half-life is the time in which the quantity being followed falls by half. For orientation: clearance means a measure of how efficiently the substance is removed, as volume per time.

Data set [1] can be described thus: Intrinsic clearance in human liver microsome. The settings on record: liver microsomes. Format: ADME.
Data set [2] is described as follows: Oral bioavailability in rat. Format: ADME, organism-based. The settings on record: in vivo.
Data set [3] is described as follows: Half life in rat. Format: ADME, organism-based. The note with it: in vivo.
Data set [4] is described as follows: Intrinsic clearance in BALB/c mouse liver microsome. Format: ADME. The note with it: liver microsomes. (In general: Liver microsomes are vesicles of endoplasmic reticulum, rich in cytochrome P450 enzymes.)
The nature of data set [5]: Intrinsic clearance in Sprague-Dawley rat liver microsome. Format: ADME. The settings on record: liver microsomes.
A short description of data set [6]: Clearance in rat. The settings on record: in vivo. Format: ADME, organism-based.
The next data set has as its system Mus musculus. Description: Inhibition of HGF-mediated c-Met phosphorylation in BALB/c mouse liver at 30 mg/kg, po after 6 hrs. Format: functional. Details: scale not given: the % may be the effect or the level left.

Consider `COc1ccc2c(Oc3ccc(NC(=O)c4c(C)n(C[C@H](C)O)n(-c5ccccc5)c4=O)cc3F)ccnc2c1`, for which the intrinsic clearance (microsomal CLint) in data set [1] is less than 55 µL/min/mg; in data set [4], less than 45 µL/min/mg; in data set [5] it was less than 60 µL/min/mg. The compound also registered a bioavailability in data set [2] of more than 50%. This compound also had a half-life in data set [3] of 1.9 h. The compound further had a clearance in data set [6] of less than 3.33 mL/min/kg.
`COc1ccc2c(Oc3ccc(NC(=O)c4c(C)n(C[C@@H](C)O)n(-c5ccccc5)c4=O)cc3F)ccnc2c1`: the microsomal CLint in data set [1] is less than 55 µL/min/mg; in data set [4], less than 45 µL/min/mg; in data set [5], less than 60 µL/min/mg. This compound returned an Activity in the data set with Mus musculus of 98%. The same compound gave a bioavailability in data set [2] of more than 50%. The half-life in data set [3] was 1.9 h. In addition, the clearance in data set [6] was less than 3.33 mL/min/kg.
